Assay results: ChEMBL document CHEMBL3608207, “Synthesis, characterization, evaluation and molecular dynamics studies of 5, 6-diphenyl-1,2,4-triazin-3(2H)-one derivatives bearing 5-substituted 1,3,4-oxadiazole as potential anti-inflammatory and analgesic agents” (Eur J Med Chem, 2015)

Experiments:
Rattus norvegicus [1] = assay: Anti-inflammatory activity in rat model of acute inflammation assessed as inhibition of carrageenan-induced paw oedema dosed at equimolar oral dose relative to 10 mg/kg, po indomethacin dosed 1 hr before carrageenan injection and measured 3 hrs after carrageenan injection; assay type: functional
Rattus norvegicus [2] = assay: (§1) Hepato-toxicity in rat Freund's adjuvant induced arthritis model of chronic inflammation assessed as assessed as SGPT level at equimolar oral dose relative to 10 mg/kg, po indomethacin dosed after 14 days from day of adjuvant injection until day 21 and measured on day 21 (reference value: 34.23 +/- 2.5 U/mL); assay type: organism-based; conditions: in vivo, 336 h
Rattus norvegicus [3] = assay: as §1, with “Renal toxicity” for “Hepato-toxicity”, “total albumin” for “SGPT”, “1.77” for “34.23”, “0.12 g/dL)” for “2.5 U/mL)”; assay type: organism-based; conditions: in vivo, 336 h
[4] = Octanol/water partition coefficient, log P of the compound by shake flask method; assay type: physicochemical
Rattus norvegicus [5] = assay: Toxicity in healthy albino rat assessed as induction of convulsion up to 500 mg/kg, po; assay type: organism-based; conditions: in vivo
Rattus norvegicus [6] = assay: Toxicity in healthy albino rat assessed as induction of coma up to 500 mg/kg, po; assay type: organism-based; conditions: in vivo
Rattus norvegicus [7] = assay: Toxicity in healthy albino rat assessed as induction of salivation up to 500 mg/kg, po; assay type: organism-based; conditions: in vivo
Rattus norvegicus [8] = assay: Anti-inflammatory activity in rat model of acute inflammation assessed as inhibition of carrageenan-induced paw oedema dosed at equimolar oral dose relative to 10 mg/kg, po indomethacin dosed 1 hr before carrageenan injection and measured 4 hrs after carrageenan injection; assay type: functional
Rattus norvegicus [9] = assay: Toxicity in healthy albino rat assessed as induction of lethargy up to 500 mg/kg, po; assay type: organism-based; conditions: in vivo
Rattus norvegicus [10] = assay: Anti-inflammatory activity in rat Freund's adjuvant induced arthritis model of chronic inflammation assessed as inhibition of right hind paw swelling at equimolar oral dose relative to 10 mg/kg, po indomethacin dosed after 14 days from day of adjuvant injection until day 21 and measured on day 21; assay type: functional
Rattus norvegicus [11] = assay: as §1, with “alkaline phosphatase” for “SGPT”, “17.82” for “34.23”, “1.2 U)” for “2.5 U/mL)”; assay type: organism-based; conditions: in vivo, 336 h
Rattus norvegicus [12] = assay: as §1, with “Renal toxicity” for “Hepato-toxicity”, “blood urea nitrogen” for “SGPT”, “23.48” for “34.23”, “1.8 mg/dL)” for “2.5 U/mL)”; assay type: organism-based; conditions: in vivo, 336 h
Rattus norvegicus [13] = assay: Anti-inflammatory activity in rat Freund's adjuvant induced arthritis model of chronic inflammation assessed as inhibition of right hind paw swelling at equimolar oral dose relative to 10 mg/kg, po indomethacin dosed after 14 days from day of adjuvant injection until day 21 and measured on day 15; assay type: functional
Rattus norvegicus [14] = assay: Toxicity in healthy albino rat assessed as induction of tremors up to 500 mg/kg, po; assay type: organism-based; conditions: in vivo
Rattus norvegicus [15] = assay: Anti-inflammatory activity in rat model of sub-chronic inflammation assessed as inhibition of cotton pellet-induced granuloma by measuring weight of granulation dosed once daily at equimolar oral dose relative to 10 mg/kg, po indomethacin for seven consecutive days from day of cotton pellet insertion (94.13 +/- 8.1 mg); assay type: functional
Rattus norvegicus [16] = assay: Anti-inflammatory activity in rat Freund's adjuvant induced arthritis model of chronic inflammation assessed as inhibition of right hind paw swelling at equimolar oral dose relative to 10 mg/kg, po indomethacin dosed after 14 days from day of adjuvant injection until day 21 and measured on day 12; assay type: functional
Mus musculus [17] = assay: Analgesic activity in Swiss albino mouse assessed as reduction in formalin-induced paw licking by measuring time spent on licking during phase-2 at equimolar oral dose relative to 10 mg/kg, po indomethacin dosed 1 hr before formalin challenge and measured 30 mins after formalin injection; assay type: functional
Rattus norvegicus [18] = assay: Anti-inflammatory activity in rat Freund's adjuvant induced arthritis model of chronic inflammation assessed as inhibition of right hind paw swelling at equimolar oral dose relative to 10 mg/kg, po indomethacin dosed after 14 days from day of adjuvant injection until day 21 and measured on day 3; assay type: functional
Rattus norvegicus [19] = assay: Anti-inflammatory activity in rat assessed as inhibition of arachidonic acid-induced paw edema dosed at equimolar oral dose relative to 10 mg/kg, po indomethacin dosed 30 mins before arachidonic acid injection and measured 1 hr after arachidonic acid injection; assay type: functional
Mus musculus [20] = assay: Analgesic activity in Swiss albino mouse assessed as reduction in formalin-induced paw licking by measuring time spent on licking during phase-1 at equimolar oral dose relative to 10 mg/kg, po indomethacin dosed 1 hr before formalin challenge and measured 30 mins after formalin injection; assay type: functional
Rattus norvegicus [21] = assay: as §1, with “Renal toxicity” for “Hepato-toxicity”, “total protein” for “SGPT”, “1.78” for “34.23”, “0.11 g/dL)” for “2.5 U/mL)”; assay type: organism-based; conditions: in vivo, 336 h
Mus musculus [22] = assay: Analgesic activity in Swiss albino mouse assessed as reduction in number of writhing episodes at equimolar oral dose relative to 10 mg/kg, po indomethacin measured 30 mins following acetic acid injection; assay type: functional
Rattus norvegicus [23] = assay: Toxicity in healthy albino rat assessed as induction of changes in autonomic or behavioural responses up to 500 mg/kg, po; assay type: organism-based; conditions: in vivo
Rattus norvegicus [24] = assay: Anti-inflammatory activity in rat Freund's adjuvant induced arthritis model of chronic inflammation assessed as inhibition of right hind paw swelling at equimolar oral dose relative to 10 mg/kg, po indomethacin dosed after 14 days from day of adjuvant injection until day 21 and measured on day 18; assay type: functional
Rattus norvegicus [25] = assay: Gastro-intestinal toxicity in rat Freund's adjuvant induced arthritis model of chronic inflammation assessed as ulcer index at equimolar oral dose relative to 10 mg/kg, po indomethacin dosed after 14 days from day of adjuvant injection until day 21 and measured on day 21; assay type: organism-based; conditions: in vivo, 336 h
[26] = biological target: T1, Prostaglandin G/H synthase 1 (Ovis aries, UniProt P05979); assay: Inhibition of ovine COX1 by oxidized TMPD detection based colorimetric assay
T1 sequence (P05979 whole entry): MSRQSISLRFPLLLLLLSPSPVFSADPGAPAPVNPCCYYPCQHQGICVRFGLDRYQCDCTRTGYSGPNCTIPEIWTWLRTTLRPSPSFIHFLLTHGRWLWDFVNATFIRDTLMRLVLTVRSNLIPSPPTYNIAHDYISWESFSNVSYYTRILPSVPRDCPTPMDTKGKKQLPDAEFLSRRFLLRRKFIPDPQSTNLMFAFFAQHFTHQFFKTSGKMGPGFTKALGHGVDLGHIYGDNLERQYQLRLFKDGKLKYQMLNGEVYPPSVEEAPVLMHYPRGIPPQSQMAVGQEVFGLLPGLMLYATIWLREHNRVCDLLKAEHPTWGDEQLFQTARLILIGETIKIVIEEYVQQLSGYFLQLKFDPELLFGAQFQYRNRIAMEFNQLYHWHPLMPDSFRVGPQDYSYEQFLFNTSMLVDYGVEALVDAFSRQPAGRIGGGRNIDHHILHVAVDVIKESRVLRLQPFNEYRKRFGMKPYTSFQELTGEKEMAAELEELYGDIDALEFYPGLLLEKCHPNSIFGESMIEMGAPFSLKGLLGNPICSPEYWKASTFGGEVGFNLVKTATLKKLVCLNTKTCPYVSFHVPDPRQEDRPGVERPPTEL

Rattus norvegicus [27] = assay: as §1, with “SGOT” for “SGPT”, “92.48” for “34.23”, “7.8” for “2.5”; assay type: organism-based; conditions: in vivo, 336 h
Rattus norvegicus [28] = assay: Toxicity in healthy albino rat assessed as induction of diarrhoea up to 500 mg/kg, po; assay type: organism-based; conditions: in vivo

Row | SMILES | inhibition (INH) (Rattus norvegicus [1]) [%] | Activity (Rattus norvegicus [2]) [U/ml] | Activity (Rattus norvegicus [3]) [g/dL] | logP [4] | Activity (Rattus norvegicus [5]) | Activity (Rattus norvegicus [6]) | Activity (Rattus norvegicus [7]) | inhibition (INH) (Rattus norvegicus [8]) [%] | Activity (Rattus norvegicus [9]) | inhibition (INH) (Rattus norvegicus [10]) [%] | Activity (Rattus norvegicus [11]) [U] | Activity (Rattus norvegicus [12]) [mg/dL] | inhibition (INH) (Rattus norvegicus [13]) [%] | Activity (Rattus norvegicus [14]) | Activity (Rattus norvegicus [15]) [mg] | inhibition (INH) (Rattus norvegicus [16]) [%] | inhibition (INH) (Mus musculus [17]) [%] | inhibition (INH) (Rattus norvegicus [18]) [%] | inhibition (INH) (Rattus norvegicus [19]) [%] | inhibition (INH) (Mus musculus [20]) [%] | further results
1 | O=c1nc(-c2ccccc2)c(-c2ccccc2)nn1Cc1nnc(-c2ccc([N+](=O)[O-])cc2)o1 | 49.6 | 45.28 | 1.83 | 3.71 | Non-toxic | Non-toxic | Non-toxic | 54.76 | Non-toxic | 49.7 | 19.92 | 39.24 | 43.82 | Non-toxic | 58.07 | 41.78 | 78.04 | 32.01 | 12.26 | 13.68 | Activity (Rattus norvegicus [21]): 1.84 g/dL; inhibition (INH) (Mus musculus [22]): 74.84%; Activity (Rattus norvegicus [23]): Non-toxic; inhibition (INH) (Rattus norvegicus [24]): 45.9%; UI (Rattus norvegicus [25]): 16; IC50 [26]: 44.8 µM; Activity (Rattus norvegicus [27]): 102.38 U/ml; Activity (Rattus norvegicus [28]): Non-toxic
2 | O=c1nc(-c2ccccc2)c(-c2ccccc2)nn1Cc1nnc(-c2ccc(O)cc2O)o1 | 53.27 | 39.67 | 1.82 | 3.46 | Non-toxic | Non-toxic | Non-toxic | 59.74 | Non-toxic | 54.25 | 19.56 | 38.67 | 49.82 | Non-toxic | 56.11 | 43.97 | 75.21 | 31.26 | 19.19 | 10.73 | Activity (Rattus norvegicus [21]): 1.88 g/dL; inhibition (INH) (Mus musculus [22]): 72.4%; Activity (Rattus norvegicus [23]): Non-toxic; inhibition (INH) (Rattus norvegicus [24]): 52.44%; UI (Rattus norvegicus [25]): 10; IC50 [26]: 43.3 µM; Activity (Rattus norvegicus [27]): 99.35 U/ml; Activity (Rattus norvegicus [28]): Non-toxic
3 | COc1ccc(-c2nnc(Cn3nc(-c4ccccc4)c(-c4ccccc4)nc3=O)o2)cc1 | 48.11 | 41.31 | 1.87 | 3.56 | Non-toxic | Non-toxic | Non-toxic | 52.67 | Non-toxic | 49.34 | 22.11 | 40.62 | 43.46 | Non-toxic | 58.51 | 41.05 | 74.38 | 30.02 | 13.71 | 10.59 | Activity (Rattus norvegicus [21]): 1.81 g/dL; inhibition (INH) (Mus musculus [22]): 70.21%; Activity (Rattus norvegicus [23]): Non-toxic; inhibition (INH) (Rattus norvegicus [24]): 45.78%; UI (Rattus norvegicus [25]): 11; IC50 [26]: 44.9 µM; Activity (Rattus norvegicus [27]): 103.17 U/ml; Activity (Rattus norvegicus [28]): Non-toxic
4 | O=c1nc(-c2ccccc2)c(-c2ccccc2)nn1Cc1nnc(-c2ccc(Cl)cc2)o1 | 51.32 | 42.45 | 1.8 | 3.91 | Non-toxic | Non-toxic | Non-toxic | 54.99 | Non-toxic | 51.98 | 20.28 | 42.28 | 45.86 | Non-toxic | 57.8 | 43.36 | 75.85 | 30.02 | 17.58 | 12.11 | Activity (Rattus norvegicus [21]): 1.91 g/dL; inhibition (INH) (Mus musculus [22]): 73.26%; Activity (Rattus norvegicus [23]): Non-toxic; inhibition (INH) (Rattus norvegicus [24]): 48.87%; UI (Rattus norvegicus [25]): 18; IC50 [26]: 44.2 µM; Activity (Rattus norvegicus [27]): 107.18 U/ml; Activity (Rattus norvegicus [28]): Non-toxic
5 | Nc1ccc(-c2nnc(Cn3nc(-c4ccccc4)c(-c4ccccc4)nc3=O)o2)cc1 | 51.89 | 39.11 | 1.87 | 3.72 | Non-toxic | Non-toxic | Non-toxic | 56.96 | Non-toxic | 52.21 | 20.64 | 33.85 | 47.9 | Non-toxic | 56.29 | 45.8 | 74.57 | 31.14 | 16.45 | 12.45 | Activity (Rattus norvegicus [21]): 1.86 g/dL; inhibition (INH) (Mus musculus [22]): 71.85%; Activity (Rattus norvegicus [23]): Non-toxic; inhibition (INH) (Rattus norvegicus [24]): 49.23%; UI (Rattus norvegicus [25]): 12; IC50 [26]: 43.4 µM; Activity (Rattus norvegicus [27]): 98.21 U/ml; Activity (Rattus norvegicus [28]): Non-toxic
